Assay results from ChEMBL document CHEMBL1201861, “Genomics of Drug Sensitity in Cancer screening data, Wellcome Trust Sanger Institute”.

How the values were obtained:
Assay in all cases: cells
[1] = system: COLO-824; format: functional, cell-based, Homo sapiens; conditions: Homo sapiens, COLO-824
Description: SANGER: Inhibition of human COLO-824 cell growth in a cell viability assay.

[2] = system: COR-L88; format: functional, cell-based, Homo sapiens; conditions: Homo sapiens, COR-L88;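 note: growth inhibition of COR-L88 cells, read out with a cell viability assay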
Description: SANGER: Inhibition of human COR-L88 cell growth in a cell viability assay.

[3] = system: DJM-1; format: functional, cell-based, Homo sapiens; conditions: Homo sapiens, DJM-1;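 note: growth inhibition of human DJM-1 cells, read out by a cell viability assay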
Description: SANGER: Inhibition of human DJM-1 cell growth in a cell viability assay.

[4] = system: DMS-114; format: functional, cell-based, Homo sapiens; conditions: Homo sapiens, DMS-114
[5] = system: ES4; format: functional, cell-based, Homo sapiens; conditions: Homo sapiens, ES4;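 note: growth inhibition of human ES4 cells, read out by a cell viability assay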
Description: SANGER: Inhibition of human ES4 cell growth in a cell viability assay.

[6] = system: GR-ST; format: functional, cell-based, Homo sapiens; conditions: Homo sapiens, GR-ST
Description: SANGER: Inhibition of human GR-ST cell growth in a cell viability assay.

[7] = system: HAL-01; format: functional, cell-based, Homo sapiens; conditions: Homo sapiens, HAL-01;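 note: growth inhibition of human HAL-01 cells, read out with a cell viability assay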
Description: SANGER: Inhibition of human HAL-01 cell growth in a cell viability assay.

[8] = system: HC-1; format: functional, cell-based, Homo sapiens; conditions: Homo sapiens, HC-1;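 note: growth inhibition of HC-1 cells measured by a cell viability assay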
Description: SANGER: Inhibition of human HC-1 cell growth in a cell viability assay.

[9] = system: HCC1187; format: functional, cell-based, Homo sapiens; conditions: Homo sapiens, HCC1187;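 note: growth inhibition of HCC1187 cells, read out with a cell viability assay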
Description: SANGER: Inhibition of human HCC1187 cell growth in a cell viability assay.

[10] = system: HCC2157; format: functional, cell-based, Homo sapiens; conditions: Homo sapiens, HCC2157;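 note: growth inhibition of the cancer cell line, read out as cell viability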
Description: SANGER: Inhibition of human HCC2157 cell growth in a cell viability assay.

[11] = system: HCC2218; format: functional, cell-based, Homo sapiens; conditions: Homo sapiens, HCC2218;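 note: cell viability assay read-out, with IC50 given as the concentration that inhibits growth of the cell line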
Description: SANGER: Inhibition of human HCC2218 cell growth in a cell viability assay.

[12] = system: HT; format: functional, cell-based, Homo sapiens; conditions: Homo sapiens, HT
Description: SANGER: Inhibition of human HT cell growth in a cell viability assay.

[13] = system: J-RT3-T3-5; format: functional, cell-based, Homo sapiens; conditions: Homo sapiens, J-RT3-T3-5;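 note: cell viability assay measuring growth inhibition of human J-RT3-T3-5 cells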
Description: SANGER: Inhibition of human J-RT3-T3-5 cell growth in a cell viability assay.

[14] = system: KLE; format: functional, cell-based, Homo sapiens; conditions: Homo sapiens, KLE;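 note: growth inhibition of human KLE cells, read out with a cell viability assay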
Description: SANGER: Inhibition of human KLE cell growth in a cell viability assay.

[15] = system: KM-H2; format: functional, cell-based, Homo sapiens; conditions: Homo sapiens, KM-H2;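 note: growth inhibition of KM-H2 cells, read out by a cell viability assay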
Description: SANGER: Inhibition of human KM-H2 cell growth in a cell viability assay.

[16] = system: L-428; format: functional, cell-based, Homo sapiens; conditions: Homo sapiens, L-428
Description: SANGER: Inhibition of human L-428 cell growth in a cell viability assay.

[17] = system: LB831-BLC; format: functional, cell-based, Homo sapiens; conditions: Homo sapiens, LB831-BLC;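 note: growth inhibition of LB831-BLC cells, read out with a cell viability assay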
Description: SANGER: Inhibition of human LB831-BLC cell growth in a cell viability assay.

[18] = system: LOX IMVI; format: functional, cell-based, Homo sapiens; conditions: Homo sapiens, LOX IMVI
Description: SANGER: Inhibition of human LOXIMVI cell growth in a cell viability assay.

[19] = system: LS-411N; format: functional, cell-based, Homo sapiens; conditions: Homo sapiens, LS-411N
[20] = system: MFH-ino; format: functional, cell-based, Homo sapiens; conditions: Homo sapiens, MFH-ino;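 note: growth inhibition of human MFH-ino cells, read out by a cell viability assay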
Description: SANGER: Inhibition of human MFH-ino cell growth in a cell viability assay.

[21] = system: MFM-223; format: functional, cell-based, Homo sapiens; conditions: Homo sapiens, MFM-223
Description: SANGER: Inhibition of human MFM-223 cell growth in a cell viability assay.

[22] = system: MZ2-MEL; format: functional, cell-based, Homo sapiens; conditions: Homo sapiens, MZ2-MEL;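 note: growth inhibition of MZ2-MEL cells read out with a cell viability assay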
Description: SANGER: Inhibition of human MZ2-MEL cell growth in a cell viability assay.

[23] = system: Mo; format: functional, cell-based, Homo sapiens; conditions: Homo sapiens, Mo
Description: SANGER: Inhibition of human Mo-T cell growth in a cell viability assay.

[24] = system: NCI-H1770; format: functional, cell-based, Homo sapiens; conditions: Homo sapiens, NCI-H1770;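 note: growth inhibition of NCI-H1770 cells determined with a viability readout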
Description: SANGER: Inhibition of human NCI-H1770 cell growth in a cell viability assay.

[25] = system: NCI-H1838; format: functional, cell-based, Homo sapiens; conditions: Homo sapiens, NCI-H1838;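 note: growth inhibition of NCI-H1838 cells, determined with a cell viability readout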
Description: SANGER: Inhibition of human NCI-H1838 cell growth in a cell viability assay.

[26] = system: NCI-H2126; format: functional, cell-based, Homo sapiens; conditions: Homo sapiens, NCI-H2126;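 note: growth inhibition of the cancer cell line, determined with a cell viability readout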
Description: SANGER: Inhibition of human NCI-H2126 cell growth in a cell viability assay.

[27] = system: SNU1; format: functional, cell-based, Homo sapiens; conditions: Homo sapiens, SNU1;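 note: growth inhibition of human NCI-SNU-1 cells, measured with a cell viability assay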
Description: SANGER: Inhibition of human NCI-SNU-1 cell growth in a cell viability assay.

[28] = system: ONS-76; format: functional, cell-based, Homo sapiens; conditions: Homo sapiens, ONS-76;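 note: growth inhibition of human ONS-76 cells, read out with a cell viability assay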
Description: SANGER: Inhibition of human ONS-76 cell growth in a cell viability assay.

[29] = system: RPMI-8226; format: functional, cell-based, Homo sapiens; conditions: Homo sapiens, RPMI-8226
Description: SANGER: Inhibition of human RPMI-8226 cell growth in a cell viability assay.

[30] = system: SBC-1; format: functional, cell-based, Homo sapiens; conditions: Homo sapiens, SBC-1;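 note: cell viability assay measuring growth inhibition of the SBC-1 cell line, IC50 being the concentration that halves growth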
Description: SANGER: Inhibition of human SBC-1 cell growth in a cell viability assay.

[31] = system: SCH; format: functional, cell-based, Homo sapiens; conditions: Homo sapiens, SCH;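 note: growth inhibition of human SCH cells, read out in a cell viability assay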
Description: SANGER: Inhibition of human SCH cell growth in a cell viability assay.

[32] = system: SH-4; format: functional, cell-based, Homo sapiens; conditions: Homo sapiens, SH-4;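 note: growth inhibition of SH-4 cells, read out with a cell viability assay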
Description: SANGER: Inhibition of human SH-4 cell growth in a cell viability assay.

[33] = system: SHP77; format: functional, cell-based, Homo sapiens, SHP-77; conditions: Homo sapiens, SHP77;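 note: growth inhibition of human SHP-77 cells measured by a cell viability assay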
Description: SANGER: Inhibition of human SHP-77 cell growth in a cell viability assay.

[34] = system: SJSA-1; format: functional, cell-based, Homo sapiens; conditions: Homo sapiens, SJSA-1;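 note: growth inhibition of human SJSA-1 cells, read out through a cell viability measurement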
Description: SANGER: Inhibition of human SJSA-1 cell growth in a cell viability assay.

[35] = system: SK-MEL-2; format: functional, cell-based, Homo sapiens; conditions: Homo sapiens, SK-MEL-2;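 note: growth inhibition of human SK-MEL-2 cells measured with a cell viability assay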
Description: SANGER: Inhibition of human SK-MEL-2 cell growth in a cell viability assay.

[36] = system: SK-UT-1; format: functional, cell-based, Homo sapiens; conditions: Homo sapiens, SK-UT-1;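 note: growth inhibition of SK-UT-1 cells, measured by a cell viability assay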
Description: SANGER: Inhibition of human SK-UT-1 cell growth in a cell viability assay.

[37] = system: SW 962; format: functional, cell-based, Homo sapiens; conditions: Homo sapiens, SW 962;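 note: growth inhibition of human SW962 cells, read out by a cell viability assay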
Description: SANGER: Inhibition of human SW962 cell growth in a cell viability assay.

[38] = system: A101D; format: functional, cell-based, Homo sapiens; conditions: Homo sapiens, A101D;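 note: growth inhibition of the cell line, measured with a viability assay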
Description: SANGER: Inhibition of human A101D cell growth in a cell viability assay.

[39] = system: A3-KAW; format: functional, cell-based, Homo sapiens; conditions: Homo sapiens, A3-KAW;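 note: growth inhibition of human A3-KAW cells, read out with a cell viability assay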
Description: SANGER: Inhibition of human A3-KAW cell growth in a cell viability assay.

[40] = system: A4-Fuk; format: functional, cell-based, Homo sapiens; conditions: Homo sapiens, A4-Fuk;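 note: growth inhibition of A4-Fuk cells, read out by a cell viability assay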
Description: SANGER: Inhibition of human A4-Fuk cell growth in a cell viability assay.

[41] = system: ACN; format: functional, cell-based, Homo sapiens; conditions: Homo sapiens, ACN;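 note: growth inhibition of the human ACN cell line, read out via cell viability testing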
Description: SANGER: Inhibition of human ACN cell growth in a cell viability assay.

[42] = system: AM-38; format: functional, cell-based, Homo sapiens; conditions: Homo sapiens, AM-38;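 note: growth inhibition of AM-38 cells of human origin, read out by a cell viability assay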
Description: SANGER: Inhibition of human AM-38 cell growth in a cell viability assay.

[43] = system: BB49-HNC; format: functional, cell-based, Homo sapiens; conditions: Homo sapiens, BB49-HNC;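 note: cell viability assay read-out, reported as inhibition of BB49-HNC cell growth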
Description: SANGER: Inhibition of human BB49-HNC cell growth in a cell viability assay.

[44] = system: TE-9; format: functional, cell-based, Homo sapiens; conditions: Homo sapiens, TE-9;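 note: cell growth inhibition, measured with a cell viability readout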
Description: SANGER: Inhibition of human TE-9 cell growth in a cell viability assay.

[45] = system: UACC-257; format: functional, cell-based, Homo sapiens; conditions: Homo sapiens, UACC-257
Description: SANGER: Inhibition of human UACC-257 cell growth in a cell viability assay.

[46] = system: HCC 2998; format: functional, cell-based, Homo sapiens; conditions: Homo sapiens, HCC 2998;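 note: growth inhibition of human HCC2998 cells, measured with a cell viability read-out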
Description: SANGER: Inhibition of human HCC2998 cell growth in a cell viability assay.

[47] = system: NB12; format: functional, cell-based, Homo sapiens; conditions: Homo sapiens, NB12;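 note: growth inhibition of human NB12 cells, read out by a cell viability assay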
Description: SANGER: Inhibition of human NB12 cell growth in a cell viability assay.

SMILES: N[C@@H](CSC(c1ccccc1)(c1ccccc1)c1ccccc1)C(=O)O [S-TRITYL-L-CYSTEINE]
- IC50 [1]: > 5.12 µM
- IC50 [2]: > 5.12 µM
- IC50 [3]: > 5.12 µM
- IC50 [4]: 3.26 µM
- IC50 [5]: > 5.12 µM
- IC50 [6]: 2.97 µM
- IC50 [7]: 2.42 µM
- IC50 [8]: 1.05 µM
- IC50 [9]: > 5.12 µM
- IC50 [10]: > 5.12 µM
- IC50 [11]: > 5.12 µM
- IC50 [12]: 2.69 µM
- IC50 [13]: 0.97 µM
- IC50 [14]: > 5.12 µM
- IC50 [15]: 2.9 µM
- IC50 [16]: 3.21 µM
- IC50 [17]: > 5.12 µM
- IC50 [18]: > 5.12 µM
- IC50 [19]: 1.52 µM
- IC50 [20]: 0.471 µM
- IC50 [21]: > 5.12 µM
- IC50 [22]: > 5.12 µM
- IC50 [23]: > 5.12 µM
- IC50 [24]: > 5.12 µM
- IC50 [25]: > 5.12 µM
- IC50 [26]: 2.11 µM
- IC50 [27]: > 5.12 µM
- IC50 [28]: > 5.12 µM
- IC50 [29]: 1.28 µM
- IC50 [30]: > 5.12 µM
- IC50 [31]: 2.5 µM
- IC50 [32]: 2.31 µM
- IC50 [33]: > 5.12 µM
- IC50 [34]: 0.75 µM
- IC50 [35]: > 5.12 µM
- IC50 [36]: 0.626 µM
- IC50 [37]: 1.14 µM
- IC50 [38]: 1.73 µM
- IC50 [39]: 0.835 µM
- IC50 [40]: 0.453 µM
- IC50 [41]: 1.46 µM
- IC50 [42]: > 5.12 µM
- IC50 [43]: > 5.12 µM
- IC50 [44]: 0.915 µM
- IC50 [45]: > 5.12 µM

SMILES: CC[C@H](CO)Nc1nc(NCc2ccccc2)c2ncn(C(C)C)c2n1 [SELICICLIB]
- IC50 [1]: > 16 µM
- IC50 [2]: > 16 µM
- IC50 [3]: > 16 µM
- IC50 [4]: > 16 µM
- IC50 [5]: > 16 µM
- IC50 [6]: > 16 µM
- IC50 [7]: > 16 µM
- IC50 [8]: > 16 µM
- IC50 [9]: > 16 µM
- IC50 [10]: > 16 µM
- IC50 [11]: > 16 µM
- IC50 [46]: > 16 µM
- IC50 [12]: > 16 µM
- IC50 [13]: > 16 µM
- IC50 [15]: > 16 µM
- IC50 [16]: > 16 µM
- IC50 [17]: 11.6 µM
- IC50 [18]: > 16 µM
- IC50 [19]: > 16 µM
- IC50 [20]: > 16 µM
- IC50 [21]: > 16 µM
- IC50 [22]: > 16 µM
- IC50 [23]: > 16 µM
- IC50 [47]: > 16 µM
- IC50 [24]: > 16 µM
- IC50 [25]: > 16 µM
- IC50 [26]: > 16 µM
- IC50 [27]: > 16 µM
- IC50 [28]: > 16 µM
- IC50 [29]: > 16 µM
- IC50 [30]: > 16 µM
- IC50 [31]: > 16 µM
- IC50 [32]: > 16 µM
- IC50 [33]: > 16 µM
- IC50 [34]: > 16 µM
- IC50 [35]: > 16 µM
- IC50 [36]: 10.3 µM
- IC50 [37]: > 16 µM
- IC50 [38]: > 16 µM
- IC50 [39]: 5.76 µM
- IC50 [40]: > 16 µM
- IC50 [41]: > 16 µM
- IC50 [42]: > 16 µM
- IC50 [43]: > 16 µM
- IC50 [44]: > 16 µM
- IC50 [45]: > 16 µM

SMILES: CCN(CC)CCNC(=O)c1c(C)[nH]c(/C=C2\C(=O)Nc3ccc(F)cc32)c1C [SUNITINIB]
- IC50 [1]: > 8 µM
- IC50 [2]: > 8 µM
- IC50 [3]: > 8 µM
- IC50 [4]: > 8 µM
- IC50 [5]: 2.81 µM
- IC50 [6]: > 8 µM
- IC50 [7]: 2.06 µM
- IC50 [8]: 5.43 µM
- IC50 [9]: > 8 µM
- IC50 [10]: > 8 µM
- IC50 [11]: > 8 µM
- IC50 [12]: > 8 µM
- IC50 [13]: 6.08 µM
- IC50 [14]: > 8 µM
- IC50 [15]: > 8 µM
- IC50 [16]: > 8 µM
- IC50 [17]: > 8 µM
- IC50 [18]: > 8 µM
- IC50 [19]: > 8 µM
- IC50 [20]: > 8 µM
- IC50 [21]: > 8 µM
- IC50 [22]: > 8 µM
- IC50 [23]: > 8 µM
- IC50 [24]: > 8 µM
- IC50 [25]: > 8 µM
- IC50 [26]: > 8 µM
- IC50 [27]: > 8 µM
- IC50 [28]: > 8 µM
- IC50 [29]: 7.51 µM
- IC50 [30]: > 8 µM
- IC50 [31]: > 8 µM
- IC50 [32]: 5.48 µM
- IC50 [33]: > 8 µM
- IC50 [34]: 7.66 µM
- IC50 [35]: > 8 µM
- IC50 [36]: > 8 µM
- IC50 [37]: > 8 µM
- IC50 [38]: 2.78 µM
- IC50 [39]: 1.63 µM
- IC50 [40]: 1.34 µM
- IC50 [41]: > 8 µM
- IC50 [42]: > 8 µM
- IC50 [43]: 3.71 µM
- IC50 [44]: > 8 µM
- IC50 [45]: > 8 µM
